Assay results reported in PMC3360951 (Chemistry & biology, 2008).

How the values were obtained:
PSA [1] = target: T1, PSA (Homo sapiens, UniProt P07288); assay: PSA activity assay, inhibition kinetics by progress curves; assay type: biochemical
elastase = assay: Protease specificity: elastase + suc-AAPV-AMC; assay type: biochemical
cathepsin B = cathepsin B (Homo sapiens, UniProt P07858); assay: Protease specificity: cathepsin B + Z-RR-AMC; assay type: biochemical; settings: in words; over a range of concentrations
PSA [2] = target: T1, PSA; settings: 1.5 μM inhibitor, 2 nM PSA, 37°C, 1 hr
trypsin = assay: Protease specificity: trypsin + Bz-R-AMC; assay type: biochemical
[3] = system: PSA-negative TSU human bladder cancer cells; assay: Clonal survival assay, TSU; assay type: cell-based; settings: under these same conditions (100 nM, 1 μM)
PSA [4] = target: T1, PSA; settings: 500 nM inhibitor, 37°C, western blot
[5] = system: PSA-positive LNCaP human prostate cancer cells; assay: Clonal survival assay, LNCaP; assay type: cell-based; settings: compared to vehicle-treated control
[6] = system: LNCaP, LAPC-4, CWR22R, C4-2B, DU145, PC3 human prostate cancer cell lines; assay: MTT growth assay, panel of prostate cancer cell lines; assay type: cell-based; settings: 100 nM; cells attached 24 hr before exposure
cathepsin D = cathepsin D (Bos taurus, UniProt P80209); assay: Protease specificity: Cathepsin D Assay Kit; assay type: biochemical; settings: in words; over a range of concentrations
[7] = target: dipeptidyl peptidase 4 (DPP-4) (Homo sapiens, UniProt P27487); assay: Protease specificity: DPP-4 + AP-AFC; assay type: biochemical
chymotrypsin = assay: Protease specificity: chymotrypsin + suc-AAF-AMC; assay type: biochemical
[8] = Initial toxicologic studies, intravenous doses in mice; assay type: in vivo, mouse
[9] = system: CWR22R-H PSA-producing human prostate cancer xenograft; assay: Growth of subcutaneous CWR22R-H xenografts; settings: 33 mg/kg/dose iv x 6 doses (46: equimolar doses); significant only at day 6
[10] = system: CWR22R-H PSA-producing human prostate cancer xenograft; assay: Serum free and total PSA per gram of tumor in CWR22R-H xenograft mice; assay type: in vivo; settings: over the 10 day period between PSA measurements; 33 mg/kg/dose x 6
[11] = compared to full-length Z-SSKLL-H

T1 sequence (P07288 25-261): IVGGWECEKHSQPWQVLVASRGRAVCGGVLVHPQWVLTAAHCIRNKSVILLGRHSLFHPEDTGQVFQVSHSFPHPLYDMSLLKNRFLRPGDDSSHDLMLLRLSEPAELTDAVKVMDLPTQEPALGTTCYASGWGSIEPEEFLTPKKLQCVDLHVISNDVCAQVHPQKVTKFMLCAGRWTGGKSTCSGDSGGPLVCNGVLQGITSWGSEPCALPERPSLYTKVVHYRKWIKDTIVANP
Sequence of dipeptidyl peptidase 4 (DPP-4) (P27487 whole entry, species assumed): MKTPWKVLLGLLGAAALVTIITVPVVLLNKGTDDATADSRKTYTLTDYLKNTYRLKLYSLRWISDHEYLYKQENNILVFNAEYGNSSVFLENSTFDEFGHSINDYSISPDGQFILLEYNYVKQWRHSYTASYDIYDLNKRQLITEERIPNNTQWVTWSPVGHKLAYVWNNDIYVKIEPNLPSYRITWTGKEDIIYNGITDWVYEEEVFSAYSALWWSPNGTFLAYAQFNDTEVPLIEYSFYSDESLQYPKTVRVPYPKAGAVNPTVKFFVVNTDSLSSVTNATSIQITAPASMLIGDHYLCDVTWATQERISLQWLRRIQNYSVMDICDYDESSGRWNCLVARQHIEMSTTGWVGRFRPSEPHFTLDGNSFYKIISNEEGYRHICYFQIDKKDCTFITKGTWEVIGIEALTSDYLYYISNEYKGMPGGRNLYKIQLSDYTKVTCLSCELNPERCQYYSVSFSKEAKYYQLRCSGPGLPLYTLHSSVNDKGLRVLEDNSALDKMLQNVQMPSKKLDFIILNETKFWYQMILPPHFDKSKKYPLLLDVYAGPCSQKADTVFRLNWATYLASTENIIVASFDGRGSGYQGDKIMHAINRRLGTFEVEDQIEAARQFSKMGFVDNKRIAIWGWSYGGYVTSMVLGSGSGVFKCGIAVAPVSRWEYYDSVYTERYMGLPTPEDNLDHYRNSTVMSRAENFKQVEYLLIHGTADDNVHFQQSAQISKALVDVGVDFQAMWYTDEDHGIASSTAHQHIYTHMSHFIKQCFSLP
Sequence of cathepsin D (P80209 45-390): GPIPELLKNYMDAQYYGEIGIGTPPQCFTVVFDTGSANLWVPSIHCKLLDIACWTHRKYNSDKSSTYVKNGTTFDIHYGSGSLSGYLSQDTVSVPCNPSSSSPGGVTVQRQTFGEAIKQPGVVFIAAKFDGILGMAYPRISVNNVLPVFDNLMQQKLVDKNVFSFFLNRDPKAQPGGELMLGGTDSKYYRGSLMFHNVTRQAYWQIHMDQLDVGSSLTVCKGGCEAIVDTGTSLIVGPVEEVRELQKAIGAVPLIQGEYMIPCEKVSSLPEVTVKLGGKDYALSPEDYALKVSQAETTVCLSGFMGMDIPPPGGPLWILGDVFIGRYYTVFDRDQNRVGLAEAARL

Z-SSKLL-CH2OH [compound 26]
inhibition of PSA (PSA [1]; in words): did not inhibit PSA

Z-SSKIL-H [compound 4]
fold higher Ki for PSA (PSA [1]; [11]): ~ 6 fold

Z-KL(boro)Nle [compound 37]
fold increase in Ki for PSA (PSA [1]; compared to Z-SSKL(boro)Nle): 59 fold

Z-KL(boro)L [compound 36]
fold increase in Ki for PSA (PSA [1]; compared to Z-SSKL(boro)L): 90 fold

Z-SSKL(boro)L [compound 39]
selectivity for PSA over elastase (elastase): 22 times | Ki (elastase; elastase): 1.39 µM | Selectivity (elastase; elastase relative to PSA inhibition): 22 | inhibition of elastase (elastase; in words): Modest inhibition | inhibition of cathepsin B (cathepsin B): no inhibition | fold higher Ki for PSA (PSA [1]; compared to Z-SSL(boro)L): ~ 8 fold | Selectivity (PSA [1]; relative to PSA inhibition, PSA itself): 1 | PSA cleavage of the PTHrP peptide 1-34 (PSA [2]): completely inhibited | inhibition of trypsin (trypsin; in words): did not inhibit | Ki (trypsin; trypsin): > 100 µM | Selectivity (trypsin; trypsin relative to PSA inhibition): >1500 | inhibition of clonal survival [3]: ~ 25% | protection of IGFBP3 from degradation by PSA (PSA [4]): protected IGFBP3 from degradation by PSA | inhibition of clonal survival ([5]; 100 nM): ~ 75% | inhibition of clonal survival ([5]; 1 μM): ~ 85% | effect on growth of cell lines [6]: marginal effect | inhibition of cathepsin D (cathepsin D): no inhibition | Selectivity ([7]; DPPIV relative to PSA inhibition): >1500 | inhibition of DPP-4 ([7]; in words): did not inhibit | fold higher Ki for chymotrypsin than for PSA (chymotrypsin): 60 fold | Ki (chymotrypsin; chymotrypsin): 3.9 µM | Selectivity (chymotrypsin; chymotrypsin relative to PSA inhibition): 60

Z-SKLL-H [compound 8]
fold higher Ki for PSA (PSA [1]; [11]): ~ 6.5 fold

Mu-SSKL(boro)L
effect on body weight ([8]; dose of 100 mg/kg, mice): transient weight loss | lethality (fraction of the mice) ([8]; dose of 300 mg/kg): one-third | effects on mouse body weight ([8]; repeat intravenous doses of 33 mg/kg): no significant effects | tolerability ([8]; repeat intravenous doses of 33 mg/kg, mice): well tolerated | effect on tumor volume / tumor growth compared to vehicle control [9]: slight decrease in tumor volume | increase of free PSA levels/gram of tumor [10]: 13% | increase of total PSA levels/gram of tumor [10]: 1.85 fold

Z-SSKL(boro)Nle [compound 38]
fold increase in Ki for PSA (PSA [1]; compared to Z-SSKL(boro)L): ~ 5 fold

Z-SSKYL-H [compound 2]
fold higher Ki for PSA (PSA [1]; [11]): ~ 2 fold
